In PMC11450741, “Functional Characterization of an Arylsulfonamide-Based Small-Molecule Inhibitor of the NLRP3 Inflammasome” (ACS Chemical Neuroscience, 2024):

Biological target: T1, NLRP3 (Mus musculus, UniProt Q8R4B8)
T1 construct: full length recombinant NLRP3 protein (N-Flag, expressed in Expi293F cells)
Experiment: intrinsic fluorescence spectroscopy titration (ex […]/em […] nm); supported by Western blot thermal shift ([…] to […] °C)
Assay type: binding

T1 sequence (Q8R4B8 whole entry): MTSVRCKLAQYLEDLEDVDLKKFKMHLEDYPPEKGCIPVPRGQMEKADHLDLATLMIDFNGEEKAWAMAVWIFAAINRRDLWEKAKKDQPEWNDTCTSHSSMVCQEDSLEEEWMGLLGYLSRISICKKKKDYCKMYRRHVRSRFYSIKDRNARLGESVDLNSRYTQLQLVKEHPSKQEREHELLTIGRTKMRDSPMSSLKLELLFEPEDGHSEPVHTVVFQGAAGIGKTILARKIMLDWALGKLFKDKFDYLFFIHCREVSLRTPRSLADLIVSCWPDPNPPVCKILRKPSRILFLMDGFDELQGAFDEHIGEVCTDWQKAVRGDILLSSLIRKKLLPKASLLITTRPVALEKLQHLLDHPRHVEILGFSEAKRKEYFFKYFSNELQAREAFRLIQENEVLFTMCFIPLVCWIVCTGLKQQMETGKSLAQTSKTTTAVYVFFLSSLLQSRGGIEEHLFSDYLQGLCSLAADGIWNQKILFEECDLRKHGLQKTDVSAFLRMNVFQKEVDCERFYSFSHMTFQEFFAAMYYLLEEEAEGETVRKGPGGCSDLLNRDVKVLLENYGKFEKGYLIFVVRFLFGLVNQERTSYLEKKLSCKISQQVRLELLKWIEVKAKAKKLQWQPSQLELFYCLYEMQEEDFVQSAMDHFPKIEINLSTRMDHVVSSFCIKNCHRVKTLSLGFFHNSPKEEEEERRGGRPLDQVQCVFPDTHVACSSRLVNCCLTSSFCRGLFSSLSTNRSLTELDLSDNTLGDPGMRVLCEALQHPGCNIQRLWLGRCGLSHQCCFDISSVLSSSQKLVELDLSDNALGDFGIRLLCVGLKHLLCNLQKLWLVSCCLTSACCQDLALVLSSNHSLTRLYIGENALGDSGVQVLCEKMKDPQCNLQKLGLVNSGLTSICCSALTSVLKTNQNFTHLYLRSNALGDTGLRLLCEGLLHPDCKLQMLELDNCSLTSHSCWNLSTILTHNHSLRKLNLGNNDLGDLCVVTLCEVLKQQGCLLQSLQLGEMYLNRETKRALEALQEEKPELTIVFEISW

Kd: 560 ± 30.3 nM
Compound: CCCOc1ccc(Cl)cc1CN(CCc1ccc(S(=O)(=O)N2CCOCC2)cc1)C(=O)Cc1ccsc1 [YM-I-26]
